Reference: PubChem BioAssay AID2060905 (Molecular Pharmacology Branch, DTP, NCI, 2025)

Tested on: 282377-053-R-J1-PDC complex spheroid viability
Test: Anticancer human tumor 282377-053-R-J1-PDC patient-derived colon adenocarcinoma cell line growth inhibition [RAS]
Settings: for IC50: curve of first compound; for viability, T/C: stronger effect = lower value
In short: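 Multi-cell-type spheroids: tumor cells plus HUVEC endothelial cells and mesenchymal stem cells. RAS-pathway inhibitors were combined with targeted agents, each dosed in half-log steps down from clinical Cmax, or from 10 microM when Cmax was unknown.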
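Also: spheroids exposed to agents for seven days before readout.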
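For viability, T/C in this document: luminescence viability as percent of DMSO vehicle control wells.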

CC(Nc1ccc2c(c1)OCCn1cc(N3C(=O)OCC3C(F)F)nc1-2)C(N)=O (configuration not stated) + CCn1c(-c2cc(N3CCN(C)CC3)cnc2C(C)OC)c2c3cc(ccc31)-c1csc(n1)CC(NC(=O)C1CC1C)C(=O)N1CCCC(N1)C(=O)OCC(C)(C)C2
IC50 (second compound 0.000949 µM): > 10 µM | IC50 (second compound 0.003 µM): > 10 µM | IC50 (second compound 0.00949 µM): > 10 µM | IC50 (second compound 0.03 µM): > 10 µM | IC50 (second compound 0.0949 µM): > 10 µM | IC50 (second compound 0.3 µM): > 10 µM | viability, T/C (second compound 0.000949 µM, first compound 0.0316 µM): 95.5% | viability, T/C (second compound 0.000949 µM, first compound 0.1 µM): 104% | viability, T/C (second compound 0.000949 µM, first compound 0.316 µM): 81.1% | viability, T/C (second compound 0.000949 µM, first compound 1 µM): 80% | viability, T/C (second compound 0.000949 µM, first compound 3.16 µM): 74.3% | viability, T/C (second compound 0.000949 µM, first compound 10 µM): 77.4% | viability, T/C (second compound 0.003 µM, first compound 0.0316 µM): 96.5% | viability, T/C (second compound 0.003 µM, first compound 0.1 µM): 104% | viability, T/C (second compound 0.003 µM, first compound 0.316 µM): 95.2% | viability, T/C (second compound 0.003 µM, first compound 1 µM): 81.8% | viability, T/C (second compound 0.003 µM, first compound 3.16 µM): 75.3% | viability, T/C (second compound 0.003 µM, first compound 10 µM): 70.6% | viability, T/C (second compound 0.00949 µM, first compound 0.0316 µM): 103% | viability, T/C (second compound 0.00949 µM, first compound 0.1 µM): 83.4% | viability, T/C (second compound 0.00949 µM, first compound 0.316 µM): 109% | viability, T/C (second compound 0.00949 µM, first compound 1 µM): 96.5% | viability, T/C (second compound 0.00949 µM, first compound 3.16 µM): 84.5% | viability, T/C (second compound 0.00949 µM, first compound 10 µM): 68.3% | viability, T/C (second compound 0.03 µM, first compound 0.0316 µM): 86.6% | viability, T/C (second compound 0.03 µM, first compound 0.1 µM): 83.2% | viability, T/C (second compound 0.03 µM, first compound 0.316 µM): 84.1% | viability, T/C (second compound 0.03 µM, first compound 1 µM): 80.3% | viability, T/C (second compound 0.03 µM, first compound 3.16 µM): 82.2% | viability, T/C (second compound 0.03 µM, first compound 10 µM): 70.7% | viability, T/C (second compound 0.0949 µM, first compound 0.0316 µM): 90.6% | viability, T/C (second compound 0.0949 µM, first compound 0.1 µM): 82.9% | viability, T/C (second compound 0.0949 µM, first compound 0.316 µM): 93.7% | viability, T/C (second compound 0.0949 µM, first compound 1 µM): 95.3% | viability, T/C (second compound 0.0949 µM, first compound 3.16 µM): 82.9% | viability, T/C (second compound 0.0949 µM, first compound 10 µM): 98.7% | viability, T/C (second compound 0.3 µM, first compound 0.0316 µM): 106% | viability, T/C (second compound 0.3 µM, first compound 0.1 µM): 78.9% | viability, T/C (second compound 0.3 µM, first compound 0.316 µM): 94.3% | viability, T/C (second compound 0.3 µM, first compound 1 µM): 104% | viability, T/C (second compound 0.3 µM, first compound 3.16 µM): 84.3% | viability, T/C (second compound 0.3 µM, first compound 10 µM): 87.9%
